Patent publication US9540299B2, “MTOR-independent activator of TFEB for autophagy enhancement and uses thereof” (Hong Kong Baptist University, priority 2015, dated 2017)

System: N2a cells
Experiment: LC3-II levels by western blot in N2a cells (autophagy induction)
Format: cell-based, mouse
Details: for LC3-II levels in the presence of chloroquine compared with CQ treatment alone / LC3-II levels compared to the vehicle control: 12 h; for LC3-II levels in the presence of chloroquine compared with CQ treatment alone / LC3-II levels compared to the vehicle control / LC3-II levels in cells depleted of Atg5 by siRNA: analogs 1 μM; for LC3-II levels in the presence of chloroquine compared with CQ treatment alone: CQ 20 μM; for LC3-II levels compared to the vehicle control / LC3-II levels in cells depleted of Atg5 by siRNA: curcumin 10 μM; for LC3-II levels compared to the vehicle control: vs 0.1% DMSO; for LC3-II levels in cells depleted of Atg5 by siRNA: siAtg5 72 h then compound 12 h
Procedure: N2a cells were treated with curcumin (Cur, 10 μM) and its analogs (1 μM) for 12 h (FIG. 2A). N2a cells were treated with Cur (10 μM), analogs A2, B3 and C1 (1 μM) with or without chloroquine (CQ, 20 μM) for 12 h (FIG. 2B). N2a cells were transfected with non-target siRNA (siNT) or Atg5 siRNA (siAtg5, 50 nM) for 72 h and then treated with Cur (10 μM) and analogs A2, B3 and C1 (1 μM) for 12 h (FIG. 2C). The expression of LC3-II is determined by western blot. Relative intensity is normalized to that of ACTB/β-actin. Data are presented as the mean±SD from three independent experiments. *p<0.05 vs. the control (0.1% DMSO); #p<0.05 vs. CQ treatment alone. N. S.=not significant.
(§1) N2a cells are treated with curcumin E series analogs (1 μM) for 12 hours. The expression of LC3-II is shown in Western blot (FIG. 13A). LC3-II relative intensity is normalized to that of ACTB/β-actin. Quantification data (FIG. 13B) are presented as the mean±SD from three independent experiments. *p<0.05 vs. the control (0.1% DMSO).
as §1, with “E2, E3 and E4” for “curcumin E series analogs”, “(1 μM) in the presence or absence of chloroquine (CQ, 20” for “(1”, “14A).” for “13A).”, “14B)” for “13B)”, “DMSO); ^#p<0.05 vs. CQ treatment alone.” for “DMSO).”
as §1, with “E4” for “curcumin E series analogs (1 μM)”, “determined by” for “shown in”, “blotting” for “blot”, “20A).” for “13A).”, “20B)” for “13B)”, “*p<0.05, **p<0.01” for “*p<0.05”
N2a cells are transfected with non-target siRNA (Si-NT) and TFEB siRNA. The levels of TFEB is examined by Western blotting (FIG. 27A) analysis and quantified (FIG. 27B). The effects of knock-down the expression of TFEB on the expression of LC3-II levels induced by E4 (1 μM) is also examined by Western blotting (FIG. 27C). Quantification data are presented as the mean±SD from three independent experiments (FIG. 27D). *p<0.05 vs. the control (0.1% DMSO), # p<0.05 vs. CQ alone.
N2a, Hela and Hela cells stably expressing 3×-Flag-TFEB are cultured in DMEM supplemented with 10% FBS. SH-SY5Y cells are cultured in DMEM/F12 supplemented with 10% FBS. For drug treatment, the full medium is replaced by fresh Opti-MEM I and then the compounds (in 0.1% DMSO) are added to the cells and incubated for 12 h. Inducible PC12 cells overexpressing SNCA (WT and A53T) (a kind gift from Prof. David C. Rubinsztein at Cambridge University) are grown in DMEM supplemented with 10% horse serum, 5% FBS, 50 μg/ml G418, and 150 μg/ml hygromycin B at 37° C., 10% CO2. Cells are treated with 2 μg/ml doxycycline (Dox) for 24 h to induce SNCA expression. The full medium is changed to Opti-MEM I containing the testing compounds for another 48 h.
Mouse Atg5 siRNA (25 nM) or human TFEB (100 nM) siRNA and the non-target siRNAs are transfected with Lipofectamine RNAiMAX (13778030, Invitrogen) and incubated at 37° C. for 72 h.
Cells are lysed on ice in 1× Lysis Buffer (9803, Life Technologies) with complete protease inhibitor mixture (04693124001, Roche Applied Science). Animal tissues are homogenized in nine volumes of ice-cold PBS supplemented with protease inhibitors. Cytosolic and nuclear fractions are isolated using protocols similar to those described previously. Anti-Flag or TFEB antibody is added to the whole cell lysates and Dynabeads® Protein G (10003D, Life Technologies) is used for immunoprecipitation. Proteins are separated by 10-15% SDS-PAGE, transferred, and blotted with the antibodies described. The blots are then incubated with secondary antibodies or the Clean-Blot IP Detection Reagent (21230, Thermo Scientific) at room temperature for 1 h. The protein signals are detected by ECL kit (32106, Pierce) and quantified using ImageJ software. […]

SMILES	LC3-II levels in the presence of chloroquine compared with CQ treatment alone	LC3-II levels compared to the vehicle control	expression of LC3-II, dose-dependent (0-1 μM, 12 hours, dose-dependent manner)	autophagy-enhancing effect, comparison among E series compounds tested (1 μM, 12 hours)	LC3-II levels compared with the control in cells transfected with non-target siRNA (Si-NT, 1 μM)	induced autophagy (LC3-II levels) after knock-down of TFEB (TFEB siRNA, 1 μM)	LC3-II levels in cells depleted of Atg5 by siRNA	LC3-II levels plus CQ compared with CQ treatment alone in cells transfected with non-target siRNA (Si-NT, with CQ)
O=C(/C=C/c1ccccc1Cl)/C=C/c1ccccc1Cl [E2]	further increase	significantly increase	–	–	–	–	–	–
O=C(/C=C/c1ccccc1I)/C=C/c1ccccc1I [E4]	further increase	significantly increase	significantly increase	best autophagy-enhancing effect	significantly increases	attenuated	–	–
O=C(/C=C/c1cccc(C(F)(F)F)c1)/C=C/c1cccc(C(F)(F)F)c1 [A2, 1,5-bis(3-(trifluoromethyl)phenyl)penta-1,4-dien-3-one]	further increase	significantly increase	–	–	–	–	failed to increase	–
COc1cc(/C=C/C(=O)CC(=O)/C=C/c2ccc(O)c(OC)c2)ccc1O [curcumin, Curcumin, reference compound]	–	significantly increase	–	–	–	–	failed to increase	–
O=C(/C=C/c1ccc(O)cc1)/C=C/c1ccc(O)cc1 [B3, 1,5-bis(4-hydroxyphenyl)penta-1,4-dien-3-one]	further increase	significantly increase	–	–	–	–	failed to increase	–
COc1ccccc1/C=C/C(=O)/C=C/c1ccccc1OC [C1, 1,5-bis(2-methoxyphenyl)penta-1,4-dien-3-one]	further increase	significantly increase	–	–	–	–	failed to increase	further increased
O=C(/C=C/c1ccccc1Br)/C=C/c1ccccc1Br [E3]	further increase	significantly increase	–	–	–	–	–	–
